# Measurements published in ChEMBL document CHEMBL1201861, “Genomics of Drug Sensitity in Cancer screening data, Wellcome Trust Sanger Institute”.
# Legend:
# [1] = test system: Capan-2; experiment: cells; format: functional, cell-based; settings: Homo sapiens;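 note: Capan-2 cell growth inhibition, read out with a viability assay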
# Description: SANGER: Inhibition of human Capan-2 cell growth in a cell viability assay.
# [2] = test system: ChaGo-K-1; experiment: cells; format: functional, cell-based; settings: Homo sapiens;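 note: growth inhibition of ChaGo-K-1 cells, read out with a cell viability assay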
# Description: SANGER: Inhibition of human ChaGo-K-1 cell growth in a cell viability assay.
# [3] = test system: DoTc2-4510; experiment: cells; format: functional, cell-based; settings: Homo sapiens
# [4] = test system: ECC10; experiment: cells; format: functional, cell-based; settings: Homo sapiens;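 note: growth inhibition of ECC10 cells, read out by a cell viability assay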
# Description: SANGER: Inhibition of human ECC10 cell growth in a cell viability assay.
# [5] = test system: EFM-19; experiment: cells; format: functional, cell-based; settings: Homo sapiens;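 note: growth inhibition of human EFM-19 cells, measured in a cell viability assay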
# Description: SANGER: Inhibition of human EFM-19 cell growth in a cell viability assay.
# [6] = test system: EFO-27; experiment: cells; format: functional, cell-based; settings: Homo sapiens;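 note: growth inhibition of EFO-27 cells, read out with a cell viability assay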
# Description: SANGER: Inhibition of human EFO-27 cell growth in a cell viability assay.
# [7] = test system: EW-22; experiment: cells; format: functional, cell-based; settings: Homo sapiens;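 note: growth inhibition of the EW-22 cell line, measured with a cell viability readout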
# Description: SANGER: Inhibition of human EW-22 cell growth in a cell viability assay.
# [8] = test system: G-361; experiment: cells; format: functional, cell-based; settings: Homo sapiens
# [9] = test system: H-EMC-SS; experiment: cells; format: functional, cell-based; settings: Homo sapiens
# Description: SANGER: Inhibition of human H-EMC-SS cell growth in a cell viability assay.
# [10] = test system: H9; experiment: cells; format: functional, cell-based; settings: Homo sapiens
# Description: SANGER: Inhibition of human H9 cell growth in a cell viability assay.
# [11] = test system: HCC1419; experiment: cells; format: functional, cell-based; settings: Homo sapiens;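 note: growth inhibition of human HCC1419 cells, read out as cell viability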
# Description: SANGER: Inhibition of human HCC1419 cell growth in a cell viability assay.
# [12] = test system: HCC 2998; experiment: cells; format: functional, cell-based; settings: Homo sapiens;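 note: growth inhibition of human HCC2998 cells, measured with a cell viability read-out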
# Description: SANGER: Inhibition of human HCC2998 cell growth in a cell viability assay.
# [13] = test system: HLE; experiment: cells; format: functional, cell-based; settings: Homo sapiens;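 note: growth inhibition of human HLE cells, read out by a cell viability assay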
# Description: SANGER: Inhibition of human HLE cell growth in a cell viability assay.
# [14] = test system: KYSE-150 cell line; experiment: cells; format: functional, cell-based; settings: Homo sapiens;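 note: growth inhibition of human KYSE-150 cells, read out with a cell viability assay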
# Description: SANGER: Inhibition of human KYSE-150 cell growth in a cell viability assay.
# [15] = test system: LU-135; experiment: cells; format: functional, cell-based; settings: Homo sapiens
# Description: SANGER: Inhibition of human LU-135 cell growth in a cell viability assay.
# [16] = test system: LU-99A; experiment: cells; format: functional, cell-based; settings: Homo sapiens;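 note: growth inhibition of LU-99A cells, read out with a cell viability assay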
# Description: SANGER: Inhibition of human LU-99A cell growth in a cell viability assay.
# [17] = test system: MKN-1; experiment: cells; format: functional, cell-based; settings: Homo sapiens;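 note: growth inhibition of human MKN1 cells, read out by a cell viability measurement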
# Description: SANGER: Inhibition of human MKN1 cell growth in a cell viability assay.
# [18] = test system: NCI-H1437; experiment: cells; format: functional, cell-based; settings: Homo sapiens;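 note: growth inhibition of human NCI-H1437 cells, read out by a cell viability assay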
# Description: SANGER: Inhibition of human NCI-H1437 cell growth in a cell viability assay.
# [19] = test system: NCI-H1651; experiment: cells; format: functional, cell-based; settings: Homo sapiens;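 note: Read-out is a cell viability assay, with IC50 expressing inhibition of NCI-H1651 cell growth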
# Description: SANGER: Inhibition of human NCI-H1651 cell growth in a cell viability assay.
# [20] = test system: NCI-H1793; experiment: cells; format: functional, cell-based; settings: Homo sapiens;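 note: cell growth inhibition, read out by a cell viability assay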
# Description: SANGER: Inhibition of human NCI-H1793 cell growth in a cell viability assay.
# [21] = test system: NCI-H2009; experiment: cells; format: functional, cell-based; settings: Homo sapiens;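 note: cell viability assay measuring inhibition of NCI-H2009 cell growth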
# Description: SANGER: Inhibition of human NCI-H2009 cell growth in a cell viability assay.
# [22] = test system: NCI-H2030; experiment: cells; format: functional, cell-based; settings: Homo sapiens;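 note: growth inhibition of human NCI-H2030 cells, read out by a cell viability assay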
# Description: SANGER: Inhibition of human NCI-H2030 cell growth in a cell viability assay.
# [23] = test system: NCI-H2228; experiment: cells; format: functional, cell-based; settings: Homo sapiens;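 note: growth inhibition of human NCI-H2228 cells, read out by a cell viability assay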
# Description: SANGER: Inhibition of human NCI-H2228 cell growth in a cell viability assay.
# [24] = test system: OC-314; experiment: cells; format: functional, cell-based; settings: Homo sapiens
# Description: SANGER: Inhibition of human OC-314 cell growth in a cell viability assay.
# [25] = test system: OE19; experiment: cells; format: functional, cell-based; settings: Homo sapiens;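 note: growth inhibition of OE19 cells, measured through a cell viability read-out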
# Description: SANGER: Inhibition of human OE19 cell growth in a cell viability assay.
# [26] = test system: RPMI-7951; experiment: cells; format: functional, cell-based; settings: Homo sapiens
# Description: SANGER: Inhibition of human RPMI-7951 cell growth in a cell viability assay.
# [27] = test system: SW900; experiment: cells; format: functional, cell-based; settings: Homo sapiens;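 note: IC50 is the concentration that inhibits SW900 cell growth, measured by a cell viability assay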
# Description: SANGER: Inhibition of human SW900 cell growth in a cell viability assay.
# [28] = test system: BT-549; experiment: cells; format: functional, cell-based; settings: Homo sapiens
# Description: SANGER: Inhibition of human BT-549 cell growth in a cell viability assay.
# [29] = test system: C32; experiment: cells; format: functional, cell-based; settings: Homo sapiens;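 note: cell viability assay, with IC50 reflecting inhibition of C32 cell growth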
# Description: SANGER: Inhibition of human C32 cell growth in a cell viability assay.
# [30] = test system: TGBC11TKB; experiment: cells; format: functional, cell-based; settings: Homo sapiens;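 note: growth inhibition of human TGBC11TKB cells, measured by a cell viability assay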
# Description: SANGER: Inhibition of human TGBC11TKB cell growth in a cell viability assay.
# [31] = test system: TI-73; experiment: cells; format: functional, cell-based; settings: Homo sapiens;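 note: cell viability assay measuring how much compounds suppress growth of the cultured cell line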
# Description: SANGER: Inhibition of human TI-73 cell growth in a cell viability assay.
# [32] = test system: U-118-MG; experiment: cells; format: functional, cell-based; settings: Homo sapiens
# Description: SANGER: Inhibition of human U-118-MG cell growth in a cell viability assay.
# [33] = test system: UACC-893; experiment: cells; format: functional, cell-based; settings: Homo sapiens
# Description: SANGER: Inhibition of human UACC-893 cell growth in a cell viability assay.
# [34] = test system: YKG-1; experiment: cells; format: functional, cell-based; settings: Homo sapiens;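 note: cell growth inhibition, read out with a viability assay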
# Description: SANGER: Inhibition of human YKG-1 cell growth in a cell viability assay.
# [35] = test system: CHP-134; experiment: SANGER: Inhibition of human CHP-134 cell growth in a cell viability assay.; format: functional, cell-based
# [36] = test system: CPC-N; experiment: cells; format: functional, cell-based, Homo sapiens; settings: Homo sapiens, CPC-N;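 note: growth inhibition of CPC-N cells, with a cell viability assay as the readout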
# Description: SANGER: Inhibition of human CPC-N cell growth in a cell viability assay.
# [37] = test system: Calu-1; experiment: SANGER: Inhibition of human Calu-1 cell growth in a cell viability assay.; format: functional, cell-based
# [38] = test system: DMS-53; experiment: cells; format: functional, cell-based; settings: Homo sapiens;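 note: cell viability assay measuring growth inhibition of human DMS-53 cells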
# Description: SANGER: Inhibition of human DMS-53 cell growth in a cell viability assay.
# [39] = test system: DMS-79; experiment: cells; format: functional, cell-based, Homo sapiens; settings: Homo sapiens, DMS-79
# Description: SANGER: Inhibition of human DMS-79 cell growth in a cell viability assay.
# [40] = test system: EB-3; experiment: cells; format: functional, cell-based, Homo sapiens; settings: Homo sapiens, EB-3;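 note: human EB-3 cells, growth inhibition read out via a cell viability assay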
# Description: SANGER: Inhibition of human EB-3 cell growth in a cell viability assay.
# [41] = test system: HCC1143; experiment: cells; format: functional, cell-based; settings: Homo sapiens;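 note: growth inhibition of human HCC1143 cells, read out with a cell viability assay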
# Description: SANGER: Inhibition of human HCC1143 cell growth in a cell viability assay.
# [42] = test system: HSC-4; experiment: cells; format: functional, cell-based; settings: Homo sapiens;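 note: growth inhibition of human HSC-4 cells, read out with a cell viability assay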
# Description: SANGER: Inhibition of human HSC-4 cell growth in a cell viability assay.
# [43] = test system: IPC-298; experiment: SANGER: Inhibition of human IPC-298 cell growth in a cell viability assay.; format: functional, cell-based
# [44] = test system: LC-1F; experiment: cells; format: functional, cell-based, Homo sapiens; settings: Homo sapiens, LC-1F;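 note: growth inhibition of human LC-1F cells, read out with a cell viability assay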
# Description: SANGER: Inhibition of human LC-1F cell growth in a cell viability assay.
# [45] = test system: NCCIT; experiment: SANGER: Inhibition of human NCCIT cell growth in a cell viability assay.; format: functional, cell-based; settings: Homo sapiens, NCCIT
# [46] = test system: NCI-H1694; experiment: cells; format: functional, cell-based, Homo sapiens; settings: Homo sapiens, NCI-H1694;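 note: cell viability assay measuring inhibition of growth in human NCI-H1694 cells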
# Description: SANGER: Inhibition of human NCI-H1694 cell growth in a cell viability assay.
# [47] = test system: NCI-H1734; experiment: cells; format: functional, cell-based; settings: Homo sapiens;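 note: growth inhibition of human NCI-H1734 cells, read out with a cell viability assay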
# Description: SANGER: Inhibition of human NCI-H1734 cell growth in a cell viability assay.
# [48] = test system: NCI-H2171; experiment: cells; format: functional, cell-based, Homo sapiens; settings: Homo sapiens, NCI-H2171;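 note: growth inhibition of human NCI-H2171 cells, read out by a cell viability assay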
# Description: SANGER: Inhibition of human NCI-H2171 cell growth in a cell viability assay.
# [49] = test system: NCI-H2227; experiment: cells; format: functional, cell-based; settings: Homo sapiens;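 note: growth inhibition of the human cell line, read out with a cell viability assay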
# Description: SANGER: Inhibition of human NCI-H2227 cell growth in a cell viability assay.
# [50] = test system: PLC-PRF-5; experiment: cells; format: functional, cell-based; settings: Homo sapiens;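 note: growth inhibition of human PLC-PRF-5 cells, read out with a viability assay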
# Description: SANGER: Inhibition of human PLC-PRF-5 cell growth in a cell viability assay.
# [51] = test system: RPMI 8402; experiment: SANGER: Inhibition of human RPMI-8402 cell growth in a cell viability assay.; format: functional, cell-based; settings: Homo sapiens, RPMI 8402
# [52] = test system: RT-4; experiment: SANGER: Inhibition of human RT4 cell growth in a cell viability assay.; format: functional, cell-based
# [53] = test system: SU-DHL-1; experiment: SANGER: Inhibition of human SU-DHL-1 cell growth in a cell viability assay.; format: functional, cell-based; settings: Homo sapiens, SU-DHL-1
# [54] = test system: C-4-II; experiment: SANGER: Inhibition of human C-4-II cell growth in a cell viability assay.; format: functional, cell-based
# [55] = test system: TUR; experiment: cells; format: functional, cell-based, Homo sapiens; settings: Homo sapiens, TUR;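 note: growth inhibition of human TUR cells, read out with a cell viability assay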
# Description: SANGER: Inhibition of human TUR cell growth in a cell viability assay.
# [56] = test system: WSU-NHL; experiment: cells; format: functional, cell-based, Homo sapiens; settings: Homo sapiens, WSU-NHL;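 note: growth inhibition of human WSU-NHL cells, read out with a cell viability assay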
# Description: SANGER: Inhibition of human WSU-NHL cell growth in a cell viability assay.
smiles,measurement,setting,value
Cc1ccc(-n2nc(C(C)(C)C)cc2NC(=O)Nc2ccc(OCCN3CCOCC3)c3ccccc23)cc1 [DORAMAPIMOD],IC50,[1],> 10 µM
same,IC50,[2],> 10 µM
same,IC50,[3],> 10000 nM
same,IC50,[4],> 10 µM
same,IC50,[5],> 10 µM
same,IC50,[6],> 10000 nM
same,IC50,[7],> 10 µM
same,IC50,[8],> 10 µM
same,IC50,[9],> 10 µM
same,IC50,[10],> 10 µM
same,IC50,[11],> 10 µM
same,IC50,[12],> 10 µM
same,IC50,[13],> 10 µM
same,IC50,[14],> 10 µM
same,IC50,[15],> 10 µM
same,IC50,[16],> 10 µM
same,IC50,[17],> 10 µM
same,IC50,[18],> 10000 nM
same,IC50,[19],> 10 µM
same,IC50,[20],> 10 µM
same,IC50,[21],> 10 µM
same,IC50,[22],> 10 µM
same,IC50,[23],> 10 µM
same,IC50,[24],> 10 µM
same,IC50,[25],> 10 µM
same,IC50,[26],> 10 µM
same,IC50,[27],> 10 µM
same,IC50,[28],> 10 µM
same,IC50,[29],> 10000 nM
same,IC50,[30],> 10 µM
same,IC50,[31],> 10 µM
same,IC50,[32],> 10 µM
same,IC50,[33],> 10 µM
same,IC50,[34],> 10000 nM
same,IC50,[35],> 10 µM
C/C(=C\c1csc(C)n1)[C@@H]1C[C@@H]2O[C@]2(C)CCC[C@H](C)[C@H](O)[C@@H](C)C(=O)C(C)(C)[C@@H](O)CC(=O)O1 [PATUPILONE],IC50,[36],0.0107 µM
same,IC50,[37],0.0106 µM
same,IC50,[1],0.03 µM
same,IC50,[2],0.00961 µM
same,IC50,[38],> 0.032 µM
same,IC50,[39],> 0.032 µM
same,IC50,[3],0.846 nM
same,IC50,[40],> 0.032 µM
same,IC50,[5],0.0106 µM
same,IC50,[6],1.69 nM
same,IC50,[8],0.000701 µM
same,IC50,[41],> 0.032 µM
same,IC50,[11],> 0.032 µM
same,IC50,[12],0.00105 µM
same,IC50,[13],8.26e-05 µM
same,IC50,[42],0.0299 µM
same,IC50,[43],0.0221 µM
same,IC50,[14],0.000499 µM
same,IC50,[44],> 0.032 µM
same,IC50,[16],0.00533 µM
same,IC50,[17],0.00265 µM
same,IC50,[45],1.73 nM
same,IC50,[18],0.689 nM
same,IC50,[19],0.00371 µM
same,IC50,[46],> 0.032 µM
same,IC50,[47],0.016 µM
same,IC50,[20],0.021 µM
same,IC50,[21],0.000862 µM
same,IC50,[22],0.000699 µM
same,IC50,[48],0.00962 µM
same,IC50,[49],> 0.032 µM
same,IC50,[23],0.000473 µM
same,IC50,[25],0.00466 µM
same,IC50,[50],> 0.032 µM
same,IC50,[26],0.00105 µM
same,IC50,[51],4.45 nM
same,IC50,[52],> 0.032 µM
same,IC50,[53],> 0.032 µM
same,IC50,[54],0.00537 µM
same,IC50,[29],> 32 nM
same,IC50,[55],1.86 nM
same,IC50,[32],0.018 µM
same,IC50,[33],> 0.032 µM
same,IC50,[56],4.15 nM
same,IC50,[34],1.24 nM
COc1ccc(-c2cc3nccn3c(Nc3ncccc3C(N)=O)n2)cc1OC,IC50,[36],> 8 µM
same,IC50,[37],> 8 µM
same,IC50,[1],> 8 µM
same,IC50,[2],> 8 µM
same,IC50,[38],> 8 µM
same,IC50,[39],> 8 µM
same,IC50,[3],1060 nM
same,IC50,[40],> 8 µM
same,IC50,[5],> 8 µM
same,IC50,[6],2060 nM
same,IC50,[8],4.3 µM
same,IC50,[41],> 8 µM
same,IC50,[11],> 8 µM
same,IC50,[12],5.55 µM
same,IC50,[13],3.23 µM
same,IC50,[42],> 8 µM
same,IC50,[43],> 8 µM
same,IC50,[14],6.05 µM
same,IC50,[44],> 8 µM
same,IC50,[16],> 8 µM
same,IC50,[17],7.3 µM
same,IC50,[45],2360 nM
same,IC50,[18],1800 nM
same,IC50,[19],4.15 µM
same,IC50,[46],> 8 µM
same,IC50,[47],4.86 µM
same,IC50,[20],> 8 µM
same,IC50,[21],> 8 µM
same,IC50,[22],6.25 µM
same,IC50,[48],> 8 µM
same,IC50,[49],> 8 µM
same,IC50,[23],4.34 µM
same,IC50,[25],> 8 µM
same,IC50,[50],> 8 µM
same,IC50,[26],3.48 µM
same,IC50,[51],1770 nM
same,IC50,[52],6.56 µM
same,IC50,[53],> 8 µM
same,IC50,[54],> 8 µM
same,IC50,[29],> 8000 nM
same,IC50,[55],2570 nM
same,IC50,[32],6.78 µM
same,IC50,[33],> 8 µM
same,IC50,[56],1380 nM
same,IC50,[34],2650 nM
CCCCCCCCCCCC1=C(O)C(=O)C=C(O)C1=O [EMBELIN],IC50,[36],> 32 µM
same,IC50,[37],17.1 µM
same,IC50,[1],18.3 µM
same,IC50,[2],7.08 µM
same,IC50,[38],15.5 µM
same,IC50,[39],> 32 µM
same,IC50,[3],14200 nM
same,IC50,[40],20.8 µM
same,IC50,[5],4.91 µM
same,IC50,[6],> 32000 nM
same,IC50,[8],5.9 µM
same,IC50,[41],7.14 µM
same,IC50,[11],> 32 µM
same,IC50,[12],6.8 µM
same,IC50,[13],5.93 µM
same,IC50,[42],11.1 µM
same,IC50,[43],13.4 µM
same,IC50,[14],12.1 µM
same,IC50,[44],31.2 µM
same,IC50,[16],> 32 µM
same,IC50,[17],12.3 µM
same,IC50,[45],19200 nM
same,IC50,[18],6270 nM
same,IC50,[19],5.98 µM
same,IC50,[46],> 32 µM
same,IC50,[47],15 µM
same,IC50,[20],> 32 µM
same,IC50,[21],11.9 µM
same,IC50,[22],12.7 µM
same,IC50,[48],> 32 µM
same,IC50,[49],> 32 µM
same,IC50,[23],> 32 µM
same,IC50,[25],29.7 µM
same,IC50,[50],6.93 µM
same,IC50,[26],25.6 µM
same,IC50,[51],4050 nM
same,IC50,[52],> 32 µM
same,IC50,[53],> 32 µM
same,IC50,[54],> 32 µM
same,IC50,[29],2830 nM
same,IC50,[55],> 32000 nM
same,IC50,[32],29.1 µM
same,IC50,[33],21.7 µM
same,IC50,[56],13600 nM
same,IC50,[34],8880 nM
